Reference: patent publication US20200261391A1, “METHODS OF REDUCING THE RISK OF A CARDIOVASCULAR EVENT IN A STATIN-TREATED SUBJECT BY INCREASING SERUM AND PLASMA EPA AND DPA LEVELS” (Amarin Pharmaceuticals Ireland Limited, priority 2019, published 2020)
“And” between values parts separate entries of the source, which are not always exact repeats. Equal values may be shown once.

System: patients with elevated triglyceride levels on statin therapy with established cardiovascular disease or at high risk
Assay: REDUCE-IT trial: time to first occurrence of adjudicated cardiovascular endpoint events, AMR101 4 g daily vs placebo
Assay type: in vivo, human
Source text: The following study, also referred to as the REDUCE-IT clinical trial, was a large cardiovascular (CV) outcome trial designed to assess CV risk reduction benefit of AMR101 treatment (commercially known as VASCEPA®) versus placebo on the 5-point primary composite endpoint: CV death, non-fatal stroke, non-fatal myocardial infarction (MI), coronary revascularizations, or unstable angina requiring hospitalization.
A multi-center, prospective, randomized, double-blind, placebo-controlled, parallel-group study was performed to evaluate the effect of AMR101 (4 g per day) on cardiovascular health and mortality in hypertriglyceridemic patients with cardiovascular disease or at high risk for cardiovascular disease. The intended expanded indication of the study was treatment with AMR101 as an add-on to statin therapy to reduce the risk of cardiovascular events in patients with clinical cardiovascular disease or with multiple risk factors for cardiovascular disease.
The primary objective of this study was, in patients at LDL-C goal while on statin therapy, with established cardiovascular disease (CVD) or at high risk for CVD, and hypertriglyceridemia (e.g., fasting triglycerides(TG)≥200 mg/dL and <500 mg/dL), to evaluate the effect of AMR101 4 g daily on time from randomization to first occurrence of any component of the composite of the following major CV events: CV death; nonfatal MI; (including silent MI; electrocardiograms (ECGs) were performed annually for the detection of silent MIs); nonfatal stroke; coronary revascularization; and unstable angina determined to be caused by myocardial ischemia by invasive/non-invasive testing and requiring emergent hospitalization.
The key secondary objective of this study was to evaluate the effect of AMR101 4 g daily on the time from randomization to the first occurrence of the composite of following major CV events: CV death, nonfatal MI (including silent MI), and nonfatal stroke.
Other secondary objectives for this study were to evaluate the effect of therapy on time from randomization to the first occurrence of the following individual or composite endpoints: composite of CV death or nonfatal MI (including silent MI); fatal or nonfatal MI (including silent MI); non-elective coronary revascularization represented as the composite of emergent or urgent classifications; CV death; unstable angina determined to be caused by myocardial ischemia by invasive/non-invasive testing and requiring emergent hospitalization; fatal or nonfatal stroke; composite of total mortality, nonfatal MI (including silent MI), or nonfatal stroke; and total mortality.
Primary Efficacy Endpoint: The primary efficacy endpoint was time from randomization to the first occurrence of the composite of the following clinical events: CV death; nonfatal MI (including silent MI; ECGs were performed annually for the detection of silent MIs); nonfatal stroke; coronary revascularization; and unstable angina determined to be caused by myocardial ischemia by invasive/non-invasive testing and requiring emergent hospitalization. The first occurrence of any of these major adverse vascular events during the follow-up period of the study were included in the incidence.
Secondary Efficacy Endpoints: The key secondary efficacy endpoint was the time from randomization to the first occurrence of the composite of CV death, nonfatal MI (including silent MI), or nonfatal stroke. […]

[1] = adjudicated tertiary endpoint, listed as AMR101
[2] = adjudicated tertiary endpoint, listed as Icosapent Ethyl
[3] = vs placebo, median follow up 4.9 years
[4] = vs placebo, time to first event
[5] = vs placebo, time to first occurrence

CC/C=C\C/C=C\C/C=C\C/C=C\C/C=C\CCCC(=O)OCC [icosapent ethyl, eicosapentaenoic acid ethyl ester]
Amputation for PVD, patients with event (adjudicated tertiary endpoint): (0.5%) | Cardiac Arrest, patients with event (adjudicated tertiary endpoint): (0.5%) | Cardiac Arrhythmias Requiring Hospitalization of ≥24 Hours, patients with event (adjudicated tertiary endpoint): (4.6%) | Carotid Revascularization, patients with event (adjudicated tertiary endpoint): (0.8%) | Coronary Revascularization, patients with event (adjudicated tertiary endpoint): (9.2%) | Elective Revascularization, patients with event (adjudicated tertiary endpoint): (4.7%) | Emergent Revascularization, patients with event (adjudicated tertiary endpoint): (1.0%) | Ischemic Stroke, patients with event (adjudicated tertiary endpoint): (2.0%) | New Heart Failure Requiring Hospitalization, patients with event (adjudicated tertiary endpoint): (3.4%) | Primary Endpoint in Patients with Diabetes at Baseline, patients with event (adjudicated tertiary endpoint): (18.1%) | Salvage Revascularization, patients with event (adjudicated tertiary endpoint): (0.0%) | Sudden Cardiac Death, patients with event (adjudicated tertiary endpoint): 1.5% | Transient Ischemic Attack, patients with event (adjudicated tertiary endpoint): (1.6%) | Urgent Revascularization, patients with event (adjudicated tertiary endpoint): (4.4%) | Hemorrhagic Stroke, patients with event [1]: 0.3% | New Heart Failure, patients with event [1]: 4.1% | Hemorrhagic Stroke, patients with event [2]: (0.3%) | New Heart Failure, patients with event [2]: (4.1%) | Sudden Cardiac Death, patients with event [2]: (1.5%) | key secondary composite endpoint, patients with event (first occurrence of CV death, nonfatal MI or nonfatal stroke, median follow up 4.9 years): 11.2% | primary composite endpoint, patients with event (first occurrence of CV death, nonfatal MI, nonfatal stroke, coronary revascularization or unstable angina, median follow up 4.9 years): 17.2% | cardiovascular death, patients with event (in vivo): 4.3% | total mortality, patients with event (in vivo): 6.7% | key secondary composite endpoint, number needed to treat (median follow up 4.9 years): 28 | primary composite endpoint, number needed to treat (median follow up 4.9 years): 21 | New Onset of Diabetes, patients with event (patients with diabetes at baseline excluded): (3.8%) | Amputation for PVD, HR (vs placebo): 1.04 | Cardiac Arrest, HR (vs placebo): 0.52 | Cardiac Arrhythmias Requiring Hospitalization of ≥24 Hours, HR (vs placebo): 1.21 | Carotid Revascularization, HR (vs placebo): 1.18 | Coronary Revascularization, HR (vs placebo): 0.66 | Elective Revascularization, HR (vs placebo): 0.68 | Emergent Revascularization, HR (vs placebo): 0.62 | Hemorrhagic Stroke, HR (vs placebo): 1.28 | Ischemic Stroke, HR (vs placebo): 0.64 | New Heart Failure Requiring Hospitalization, HR (vs placebo): 0.97 | New Heart Failure, HR (vs placebo): 0.95 | Primary Endpoint in Patients with Diabetes at Baseline, HR (vs placebo): 0.77 | Salvage Revascularization, HR (vs placebo): 0.00 | Sudden Cardiac Death, HR (vs placebo): 0.69 | Transient Ischemic Attack, HR (vs placebo): 1.32 | Urgent Revascularization, HR (vs placebo): 0.66 | cardiac arrest, reduction (vs placebo): 48% | cardiovascular death, HR (vs placebo): 0.80 | cardiovascular death, relative risk reduction (vs placebo): 20% | composite of cardiovascular death or nonfatal myocardial infarction, RRR (vs placebo): 25% | composite of total mortality, nonfatal myocardial infarction, or nonfatal stroke, RRR (vs placebo): 23% | fatal or nonfatal myocardial infarction, RRR (vs placebo): 31% | fatal or nonfatal stroke, RRR (vs placebo): 28% | hospitalization for unstable angina, RRR (vs placebo): 32% | myocardial infarction, HR (vs placebo): 0.69 | primary endpoint risk reduction, post hoc analysis excluding patients with diarrhea (vs placebo): 25% | stroke, HR (vs placebo): 0.72 | sudden cardiac death, reduction (vs placebo): 31% | total mortality, HR (vs placebo): 0.87 | total mortality, relative risk reduction (vs placebo): 13% | urgent or emergent revascularization, RRR (vs placebo): 35% | key secondary composite endpoint, absolute risk reduction [3]: 3.6% | primary composite endpoint, absolute risk reduction [3]: 4.8% | New Onset of Diabetes, HR (vs placebo, patients with diabetes at baseline excluded): 1.04 | key secondary composite endpoint, relative risk reduction [4]: 26% and 26.5% | primary composite endpoint, relative risk reduction [4]: 25% and 24.8% | key secondary composite endpoint, HR [5]: 0.74 | primary composite endpoint, HR [5]: 0.75
